Literature values, collected in patent US12201712B2, “Method for dyeing keratinous material, comprising the use of an organosilicon compound, a phosphoric acid ester and a dyeing compound” (Henkel AG & Co. KGaA, priority 2020, dated 2025).

| SMILES | solubility in water (25° C.) | also measured |
| --- | --- | --- |
| CCN(Cc1cccc(S(=O)(=O)O)c1)c1ccc(C(=C2C=CC(=[N+](CC)Cc3cccc(S(=O)(=O)O)c3)C=C2)c2ccccc2S(=O)(=O)[O-])cc1 [Acid Blue 9] | – | water solubility (25° C.): greater than 20 wt. % |
| O=S(=O)(O)c1ccc(N=Nc2c(O)ccc3ccccc23)cc1 [Acid Orange 7, 4-[(2-hydroxy-1-naphthyl)azo]benzene sulphonate] | more than 7 g/L | – |
| O=[N+]([O-])c1cc([N+](=O)[O-])c2ccc(S(=O)(=O)O)cc2c1O [Acid Yellow 9, 8-hydroxy-5,7-dinitro-2-naphthalenesulfonic acid] | above 40 g/L | – |
| O=C(O)C1=NN(c2ccc(S(=O)(=O)O)cc2)C(=O)C1N=Nc1ccc(S(=O)(=O)O)cc1 (stereo not shown) [Acid Yellow 23, 4,5-dihydro-5-oxo-1-(4-sulfophenyl)-4-((4-sulfophenyl)azo)-1H-pyrazole-3-carboxylic acid] | – | solubility in water (in words) (at 25° C.): readily soluble in water |
